Source: US10882844B2, “Compounds useful as immunomodulators” (Bristol-Myers Squibb Company, priority 2016, dated 2021)
Read-outs that look alike come from different tables or passages of the source.

Target: PD-1/PD-L1 (Homo sapiens (Human), UniProt Q9NZQ7)
Assay: PD-1/PD-L1 Homogenous Time-Resolved Fluorescence (HTRF) binding assay
Conditions: PD-1-Ig / PD-L1-His HTRF, read-out: Range or IC50
Description: The ability of the compounds of formula (I) to bind to PD-L1 was investigated using a PD-1/PD-L1 Homogenous Time-Resolved Fluorescence (HTRF) binding assay.
Homogenous Time-Resolved Fluorescence (HTRF) binding assay.
The interaction of PD-1 and PD-L1 can be assessed using soluble, purified preparations of the extracellular domains of the two proteins. The PD-1 and PD-L1 protein extracellular domains were expressed as fusion proteins with detection tags, for PD-1, the tag was the Fc portion of Immunoglobulin (PD-1-Ig) and for PD-L1 it was the 6 histidine motif (PD-L1-His). All binding studies were performed in an HTRF assay buffer consisting of dPBS supplemented with 0.1% […] bovine serum albumin and 0.05% (v/v) Tween-20. For the h/PD-L1-His binding assay, inhibitors were pre-incubated with PD-L1-His (10 nM final) for 15 m in 4 μl of assay buffer, followed by addition of PD-1-Ig (20 nM final) in 1 μl of assay buffer and further incubation for 15 m. HTRF detection was achieved using europium crypate-labeled anti-Ig (1 nM final) and allophycocyanin (APC) labeled anti-His (20 nM final). Antibodies were diluted in HTRF detection buffer and 5 μl was dispensed on top of the binding reaction. The reaction mixture was allowed to equilibrate for 30 minutes and the resulting signal (665 nm/620 nm ratio) was obtained using an EnVision fluorometer. Additional binding assays were established between the human proteins PD-1-Ig/PD-L2-His (20 & 5 nM, respectively) and CD8O-His/PD-L1-Ig (100 & 10 nM, respectively).
Recombinant Proteins: Human PD-1 (25-167) with a C-terminal human Fc domain of immunoglobulin G (Ig) epitope tag [hPD-1 (25-167)-3S-IG] and human PD-L1 (18-239) with a C-terminal His epitope tag [hPD-L1(18-239)-TVMV-His] were expressed in HEK293T cells and purified sequentially by ProteinA affinity chromatography and size exclusion chromatography. Human PD-L2-His and CD80-His was obtained through commercial sources.
The table below lists the IC50 values for representative examples of this disclosure measured in the PD-1/PD-L1 Homogenous Time-Resolved Fluorescence (HTRF) binding assay. Ranges are as follows: A=0.18 nM-0.99 nM; B=1.0 nM-5.0 nM; C=5.01 nM-10.1 nM; D=10.2 nM-200 nM; E=201 nM→10 uM

PD-1/PD-L1, sequence (Q9NZQ7 other isoform, or with tags, fused parts or gaps): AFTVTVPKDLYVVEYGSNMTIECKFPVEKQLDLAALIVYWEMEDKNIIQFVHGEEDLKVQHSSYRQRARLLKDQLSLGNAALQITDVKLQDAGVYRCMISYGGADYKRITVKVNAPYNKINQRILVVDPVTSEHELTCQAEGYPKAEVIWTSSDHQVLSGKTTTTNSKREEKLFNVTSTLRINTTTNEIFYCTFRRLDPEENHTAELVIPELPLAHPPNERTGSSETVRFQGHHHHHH

Structure (SMILES)	IC50 (value given as range class)	IC50 (value given as number)
Cc1c(COc2cc(OCc3cncc(C#N)c3)c(CN[C@](C)(CO)C(=O)O)cc2Cl)cccc1-c1ccc2oc(C3CCN(C)CC3)nc2c1 [Example 1020, (R)-2-((5-chloro-2-((5-cyanopyridin-3-yl)methoxy)-4-((2-methyl-3-(2-(1-methylpiperidin-4-yl)benzo[d]oxazol-5-yl)benzyl)oxy)benzyl)amino)-3-hydroxy-2-methylpropanoic Acid]	0.18 to 0.99 nM	–
Cc1c(COc2cc(OCc3cncc(C#N)c3)c(CO)cc2Cl)cccc1-c1ccc2oc(C3CCN(C)CC3)nc2c1 [Example 1021, 5-((4-chloro-2-(hydroxymethyl)-5-((2-methyl-3-(2-(1-methylpiperidin-4-yl)benzo[d]oxazol-5-yl)benzyl)oxy)phenoxy)methyl)nicotinonitrile]	5.01 to 10.1 nM	–
Cc1c(COc2cc(OCc3cncc(C#N)c3)c(CN3CCCC[C@H]3C(=O)O)cc2Cl)cccc1-c1ccc2oc(C3CCN(c4ccccc4)CC3)nc2c1 [Example 1022, (S)-1-(5-chloro-2-((5-cyanopyridin-3-yl)methoxy)-4-((2-methyl-3-(2-(1-phenylpiperidin-4-yl)benzo[d]oxazol-5-yl)benzyl)oxy)benzyl)piperidine-2-carboxylic Acid]	10.2 to 200 nM	–
COc1cc(OCc2cccc(-c3ccc4oc(C5CCN(c6ccccc6)CC5)nc4c3)c2C)c(Cl)cc1CN1CCCC[C@H]1C(=O)O [Example 1023, (S)-1-(5-chloro-2-methoxy-4-((2-methyl-3-(2-(1-phenylpiperidin-4-yl)benzo[d]oxazol-5-yl)benzyl)oxy)benzyl)piperidine-2-carboxylic Acid]	201 to 10000 nM	–
COC(=O)C1CCC(c2nc3cc(-c4cccc(COc5cc(OCc6cncc(C#N)c6)c(CN6CCCC[C@H]6C(=O)O)cc5Cl)c4C)ccc3o2)CC1 (stereo partly drawn) [Example 1024, (S)-1-(5-chloro-2-((5-cyanopyridin-3-yl)methoxy)-4-((3-(2-(4-(methoxycarbonyl)cyclohexyl)benzo[d]oxazol-5-yl)-2-methylbenzyl)oxy)benzyl)piperidine-2-carboxylic acid]	1 to 5 nM	–
Cc1c(COc2cc(OCc3cncc(C#N)c3)c(CN3CCCC[C@H]3C(=O)O)cc2Cl)cccc1-c1ccc2ncc(C3=CCCNC3)nc2c1 [Example 1027, (S)-1-(5-Chloro-2-((5-cyanopyridin-3-yl)methoxy)-4-((2-methyl-3-(3-(1,2,5,6-tetra-hydropyridin-3-yl)quinoxalin-6-yl)benzyl)oxy)benzyl)piperidine-2-carboxylic Acid]	–	1.7 nM
Cc1c(COc2cc(OCc3cncc(C#N)c3)c(CN3CCCC[C@H]3C(=O)O)cc2Cl)cccc1-c1ccc2ncc(C3=CC4CCC(C3)N4C(=O)OC(C)(C)C)nc2c1 (some centres unmarked) [Example 1028]	201 to 10000 nM	–
Cc1c(COc2cc(OCc3cncc(C#N)c3)c(CN3CCCC[C@H]3C(=O)O)cc2Cl)cccc1-c1ccc2ncc(C3=CC4CCC(C3)N4)nc2c1 (stereo partly drawn) [Example 1029, (2S)-1-(4-((3-(3-(8-Azabicyclo[3.2.1]oct-2-en-3-yl)quinoxalin-6-yl)-2-methylbenzyl)-oxy)-5-chloro-2-((5-cyanopyridin-3-yl)methoxy)benzyl)piperidine-2-carboxylic acid]	1 to 5 nM	–
Cc1c(COc2cc(OCc3cncc(C#N)c3)c(CN3CCCC[C@H]3C(=O)O)cc2Cl)cccc1-c1ccc2ncc(C3=CCNCC3)nc2c1 [Example 1030, (S)-1-(5-chloro-2-((5-cyanopyridin-3-yl)methoxy)-4-((2-methyl-3-(3-(1,2,3,6-tetrahydropyridin-4-yl)quinoxalin-6-yl)benzyl)oxy)benzyl)piperidine-2-carboxylic Acid]	0.18 to 0.99 nM	–
Cc1c(COc2cc(OCc3cncc(C#N)c3)c(CN3CCCC[C@H]3C(=O)O)cc2Cl)cccc1-c1ccc2ncc(N3CCN(C)CC3)nc2c1 [Example 1031, (S)-1-(5-chloro-2-((5-cyanopyridin-3-yl)methoxy)-4-((2-methyl-3-(3-(4-methylpiperazin-1-yl)quinoxalin-6-yl)benzyl)oxy)benzyl)piperidine-2-carboxylic Acid]	5.01 to 10.1 nM	–
Cc1c(COc2cc(OCc3cncc(C#N)c3)c(CN(C)C(CO)CO)cc2Cl)cccc1-c1ccc2oc(N3C[C@@H]4C[C@H]3CN4C)nc2c1 [Example 2001]	–	3.8 nM
